Assay results taken from US5756527A, “Imidazole derivatives useful as modulators of multi drug resistances” (Ontogen Corporation, priority 1997, dated 1998).

Legend:
CEM/VLB1000 [1] = assay: Cytotoxicity potentiation (alamar blue) of vinblastine in multidrug-resistant cells; format: cell-based; details: midpoint of minimum and maximum cytotoxicity induced by 3-5 μg/mL vinblastine and compound, 48 h
Description: Multidrug-resistant cell lines are easily obtainable for in vitro determination of drug sensitization by compounds of the present invention. In vitro potentiation of antineoplastic cytotoxicity by the imidazole derivatives of the present invention was measured in both CEM/VLB1000 and SK/VLB1000 cell lines. The multidrug resistant cell lines were obtained from Dr. Victor Ling, Ontario Cancer Institute, Toronto, Canada. The CEM/VLB 1000 cell line was maintained as a suspension in minimum essential medium supplemented with 10% fetal bovine serum in a humidied atmosphere of 95% air and 5% CO2 while the SK/VLB 1000 cell line was maintained as adherent cells using the identical medium conditions as the CEM cells. The CEM/VLB 1000 cells were seeded at a density of 5×10^4 cells/well in a 96 well microtiter plate while the SK/VLB 1000 cell line was seeded at a density of 2,500 cells/well after trypsinization. Vinblastine (5 μg/mL, for the CEM cells) or Taxol (3 μg/mL, for the SK cells) and compound (0.01 to 50 μM) were added directly to the wells. After an incubation of 48 hours in presence of drug, alamar blue (B. Page et al., Int. J. Oncol. 3: 473-476, 1993) was added (10 μL to the 200 μL cell suspension) for a period of 24 hours after which the fluorescence (excitation=530 nm, emission=590 nm) was read for each well using a "CytoFluor" microtiter fluorometer plate reader. This assay measures the effective concentration of compound necessary to enhance the cytotoxicity (EC50) of vinblastine in the MDR cell line.
^1 Values presented are the midpoint (EC50) of the minimum and
maximum cytotoxicity induced by 3-5 μg/mL vinblastine and the specific
compound of the present invention.

CEM/VLB1000 [2] = assay: [3H]-vinblastine (VLB) accumulation assay; format: cell-based; details: midpoint of minimum and maximum increase in accumulation of 3H-vinblastine (275 nM), 3 hours at 37° C.
Description: ^3 H-vinblastine accumulation was also measured in the CEM/VLB1000 cell line. Corning Easy-Wash 96 well plates were pretreated with PBS and 1% BSA for 60 minutes and then removed. CEM/VLB1000 cells were seeded at 2×10^5, 40 μL volume. Plates were incubated at 37° C. for 30-60 minutes prior to use. The reference reversing agent, verapamil, or the compound of the present invention was added to the well followed by addition of media containing ^3 H-vinblastine (final concentration=275nM). Plates were allowed to incubate for 3 hours at 37° C. Cells were harvested onto pretreated Wallace filtermats A (pretreated with 0.1% polyethyleneimine) using a TomTek harvester-96. After filtering, the filtermats were allowed to dry completely. Meltix B scintillant was then added to the filtermats. The filters were then placed in a 90° C. oven for approximately 3-5 minutes and then removed. Scintillant was allowed to solidify on the filtermats. Filtermats were then placed in sample bags and read on a Wallace BetaPlate scintillation counter. The effects of compounds of the present invention in the cytotoxicity potentiation assays and vinblastine (VLB) accumulation assay are given in the Table below:
^2 Values presented are the midpoint (EC50) of the minimum and
maximum increase in accumulation of ^3 Hvinblastine caused by the
specific compound of the present invention.

EC50 (CEM/VLB1000 [2]) [nM] | SMILES | EC50 (CEM/VLB1000 [1]) [nM]
2600 | COC(=O)/C=C/c1ccc(-c2nc(-c3ccc(N)cc3)c(-c3ccc(N(C)C)cc3)[nH]2)cc1 [Example 51, 2-[4-(trans-methylpropenoate)phenyl]-4-[(4-N,N-dimethylamino)phenyl]-5-(4-aminophenyl) imidazole] | 480
2600 | CCN(CC)c1ccc(-c2[nH]c(-c3ccc(/C=C/C(=O)OC)cc3)nc2-c2ccc(N)cc2)cc1 [Example 52, 2-[4-(trans-methylpropenoate)phenyl]-4-[(4-N,N-diethylamino)phenyl]-5-(4-aminophenyl) imidazole] | 275
6500 | CNc1ccc(-c2nc(-c3ccc(/C=C/C(=O)OC)cc3)[nH]c2-c2ccc(F)cc2)cc1 [Example 53, 2-[4-(trans-methylpropenoate)phenyl]-4-[(4-N-methylamino)phenyl]-5-(4-fluorophenyl) imidazole] | 630
4800 | COC(=O)/C=C/c1cccc(-c2nc(-c3ccc(N(C)C)cc3)c(-c3ccc(N(C)C)cc3)[nH]2)c1 [Example 54, 2-[3-(trans-methylpropenoate)phenyl]-4,5-bis(4-N,N-dimethylaminophenyl) imidazole] | 256
6000 | COC(=O)/C=C/c1cc(-c2nc(-c3ccc(N(C)C)cc3)c(-c3ccc(N(C)C)cc3)[nH]2)ccc1OC [Example 55, 2-[4-methoxy-3-(trans-methylpropenoate)phenyl]-4,5-bis(4-N,N-dimethylaminophenyl) imidazole] | 370
2800 | COC(=O)/C=C/c1ccc(OC)c(-c2nc(-c3ccc(N(C)C)cc3)c(-c3ccc(N(C)C)cc3)[nH]2)c1 [Example 56, 2-[2-methoxy-5-(trans-methylpropenoate)phenyl]-4,5-bis(4-N,N-dimethylaminophenyl) imidazole] | 126
2800 | COC(=O)/C=C/c1cc(-c2nc(-c3ccc(N(C)C)cc3)c(-c3ccc(N(C)C)cc3)[nH]2)cc(OC)c1OC [Example 57, 2-[3,4-dimethoxy-5-(trans-methylpropenoate)phenyl]-4,5-bis(4-N,N-dimethylaminophenyl) imidazole] | 453
2000 | COC(=O)/C=C/c1cc(-c2nc(-c3ccc(N(C)C)cc3)c(-c3ccc(N(C)C)cc3)[nH]2)ccc1F [Example 58, 2-[4-fluoro-3-(trans-methylpropenoate)phenyl]-4,5-bis(4-N,N-dimethylaminophenyl) imidazole] | 134
3200 | CNc1ccc(-c2[nH]c(-c3ccc(F)c(/C=C/C(=O)OC)c3)nc2-c2ccc(N(C)C)cc2)cc1 [Example 59, 2-[4-fluoro-3-(trans-methylpropenoate)phenyl]-4-[(4-N,N-dimethylamino)phenyl]-5-[(4-N-methylamino)phenyl] imidazole] | 570

More lines, now with the values behind:

SMILES | EC50 (CEM/VLB1000 [2]) [nM] | EC50 (CEM/VLB1000 [1]) [nM]
CC(C)OC(=O)/C=C/c1ccc(-c2nc(-c3ccc(N(C)C)cc3)c(-c3ccc(N(C)C)cc3)[nH]2)cc1 [Example 38, 2-[4-(trans-i-propylpropenoate)phenyl]-4,5-bis[(4-N,N-dimethylamino)phenyl]imidazole] | 2400 | 138
CN(C)c1ccc(-c2nc(-c3ccc(/C=C/C(=O)OC(C)(C)C)cc3)[nH]c2-c2ccc(N(C)C)cc2)cc1 [Example 39, 2-[4-(trans-t-butylpropenoate)phenyl]-4,5-bis[(4-N,N-dimethylamino)phenyl] imidazole] | 4500 | 590
CCN(CC)c1ccc(-c2[nH]c(-c3ccc(/C=C/C(=O)OC)cc3)nc2-c2ccc(NC)cc2)cc1 [Example 40, 2-[4-(trans-methylpropenoate)phenyl]-4-[(4-N,N-diethylamino)phenyl]-5-[(4-N-methylamino)phenyl] imidazole] | 1100 | 226
CCN(CC)c1ccc(-c2nc(-c3ccc(/C=C/C(=O)OC(C)C)cc3)[nH]c2-c2ccc(NC)cc2)cc1 [Example 41, 2-[4-(trans-i-propylpropenoate)phenyl]-4-[(4-N,N-diethylamino)phenyl]-5-[(4-N-methylamino)phenyl] imidazole] | 6000 | 420
CNc1ccc(-c2[nH]c(-c3ccc(/C=C/C(=O)OC)cc3)nc2-c2ccc(N(C)C)cc2)cc1 [Example 42, 2-[4-(trans-methylpropenoate)phenyl]-4-[(4-N,N-dimethylamino)phenyl]-5-[(4-N-methylamino)phenyl] imidazole] | 1100 | 170
CCCN(C)c1ccc(-c2nc(-c3ccc(/C=C/C(=O)OC)cc3)[nH]c2-c2ccc(NC)cc2)cc1 [Example 43, 2-[4-(trans-methylpropenoate)phenyl]-4-[(4-N-methyl-N-propylamino)phenyl]-5-[(4-N-methylamino)phenyl] imidazole] | 2300 | 148
CCCN(CCC)c1ccc(-c2[nH]c(-c3ccc(/C=C/C(=O)OC)cc3)nc2-c2ccc(NC)cc2)cc1 [Example 44, 2-[4-(trans-methylpropenoate)phenyl]-4-[(4-N,N-dipropylamino)phenyl]-5-[(4-N-methylamino)phenyl] imidazole] | 1400 | 165
CCCCN(CCCC)c1ccc(-c2[nH]c(-c3ccc(/C=C/C(=O)OC)cc3)nc2-c2ccc(NC)cc2)cc1 [Example 45, 2-[4-(trans-methylpropenoate)phenyl]-4-[(4-N,N-dibutylamino)phenyl]-5-[(4-N-methylamino)phenyl] imidazole] | 10000 | 1900
CNc1ccc(-c2nc(-c3ccc(/C=C/C(=O)OC)cc3)[nH]c2-c2ccc(NC)cc2)cc1 [Example 46, 2-[4-(trans-methylpropenoate)phenyl]-4,5-bis(4-N-methylaminophenyl) imidazole] | 1400 | 203
CNc1ccc(-c2[nH]c(-c3ccc(/C=C/C(=O)OC)cc3)nc2-c2ccc(NC(C)C)cc2)cc1 [Example 47, 2-[4-(trans-methylpropenoate)phenyl]-4-[(4-N-i-propylamino)phenyl]-5-[(4-N-methylamino)phenyl] imidazole] | 870 | 194
CNc1ccc(-c2[nH]c(-c3ccc(/C=C/C(=O)OC)cc3)nc2-c2ccc(NC(C)(C)C)cc2)cc1 [Example 48, 2-[4-(trans-methylpropenoate)phenyl]-4-[(4-N-t-butylamino)phenyl]-5-[(4-N-methylamino)phenyl] imidazole] | 1200 | 240
CCN(CC)c1ccc(-c2nc(-c3ccc(/C=C/C(=O)OC)cc3)[nH]c2-c2ccc(N(CC)CC)cc2)cc1 [Example 49, 2-[4-(trans-methylpropenoate)phenyl]-4,5-bis(4-N,N-diethylaminophenyl) imidazole] | 5000 | 675
CCN(CC)c1ccc(-c2nc(-c3ccc(/C=C/C(=O)OC)cc3)[nH]c2-c2ccc(N(C)C)cc2)cc1 [Example 50, 2-[4-(trans-methylpropenoate)phenyl]-4-[(4-N,N-diethylamino)phenyl]-5-[(4-N,N-dimethylamino)phenyl] imidazole] | 4900 | 225
CCOCCCc1ccc(-c2nc(-c3ccc(N(C)C)cc3)c(-c3ccc(N(C)C)cc3)[nH]2)cc1 [Example 69, 2-[4-(3-ethoxypropyl)phenyl]-4,5-bis[(4-N,N-dimethylamino)phenyl] imidazole] | – | 210
CCCCOc1ccc(-c2nc(-c3ccc(N(C)C)cc3)c(-c3ccc(N(C)C)cc3)[nH]2)cc1 [Example 70, 2-[4-butyloxyphenyl]-4,5-bis[(4-N,N-dimethylamino)phenyl] imidazole] | – | 430
COCCOc1ccc(-c2nc(-c3ccc(N(C)C)cc3)c(-c3ccc(N(C)C)cc3)[nH]2)cc1 [Example 71, 2-[4-(2-methoxyethoxy)phenyl]-4,5-bis[(4-N,N-dimethylamino)phenyl] imidazole] | – | 170
COCCOc1ccc(-c2nc(-c3ccc(N(C)C)cc3)c(-c3ccc(N(C)C)cc3)[nH]2)cc1OC [Example 72, 2-[3-methoxy-4-(2-methoxyethoxy)-phenyl]-4,5-bis[(4-N,N-dimethylamino)phenyl] imidazole] | – | 160
